These results are taken from paper PMC10459870, “A New Diterpenoid of Indonesian Scoparia dulcis Linn: Isolation and Cytotoxic Activity against MCF-7 and T47D Cell Lines” (Molecules, 2023).

Each structure is given as a SMILES string. ≈ marks a conversion by molar mass, not a printed value.

The subject of data set [1] is MCF-7 breast cancer cells. Briefly: MTT cytotoxic activity assay, MCF-7. The format is cell-based. The note with it: for IC50: Homo sapiens, MCF7, MTT, 24 h treatment, mean ± SD; for Selectivity Index (SI) MCF-7: IC50 Vero / IC50 MCF-7. The procedure: (§1) A cytotoxic test was performed to obtain an overview of the activity of the sample on the inhibition of cancer cells. The parameter used was the inhibition concentration of 50% (IC50), a concentration that inhibits cells by 50% of the cell population. The IC50 value was calculated from the results of a linear regression between log concentration and the percentage of cell viability.
(§2) The cell lines were obtained from the Parasitology Laboratory, Faculty of Medicine, Universitas Gadjah Mada, Yogyakarta, Indonesia. Each MCF-7 and T47D cell was cultured with complete media, namely, DMEM media for MCF-7 and RPMI for T47D, which contained 10% FBS, 2% penicillin–streptomycin, and 0.5% fungzon. Cultures were stored in a 5% CO2 incubator and for harvesting cells using trypsin, as well as sample solvents using DMSO.
(§3) Compound (1) was tested for its cytotoxic activity using an MTT assay on MCF-7 and T47D breast cancer cells. Briefly, 1 × 10^4 MCF-7 and T47D cells/wells were grown in 96 well plates and incubated for 24 h in a CO2 incubator. The cells were treated with sample concentrations of 200, 100, 50, 25, 12.5, and 6.25 μg/mL for MCF-7 and 50, 25, 12.5, 6.25, 3.125, and 1.5625 μg/mL for T47D and then incubated for 24 h in a CO2 incubator. After incubation, the condition of the cells was observed under a microscope. The cell media was discarded followed by washing with phosphate-buffered saline (PBS). Then 0.5 mg/mL MTT reagent, up to 100 µL, was added to each well followed by incubation again for 4 h in a CO2 incubator. The cells were observed under a microscope, and after the formazan was clear, 100 µL of SDS stopper reagent was added in 0.01 N HCl. The plate was incubated at room temperature in a dark place for 1 × 24 h, then the absorbance was read with a microplate reader at a wavelength of 595 nm. Analysis of the absorbance data for the cytotoxic test was carried out by calculating the percentage of viable cells using the following formula.
(§4) IC50 values were calculated using a linear regression between sample concentrations and the percent (%)cell viability.
(Tetrazolium dyes change colour on reduction, which living cells bring about.)

Data set [2] relates to T47D breast cancer cells. Briefly: MTT cytotoxic activity assay, T47D. The note with it: for IC50: Homo sapiens, T47D, MTT, 24 h treatment, mean ± SD; for Selectivity Index (SI) T47D: IC50 Vero / IC50 T47D. It is filed as cell-based. The procedure: as §1, §2, §3, §4
The test system of data set [3] is Vero cells. Nature of the data set: MTT cytotoxic activity assay, Vero. To be noted: Chlorocebus sabaeus, mean ± SD. It is filed as cell-based.
In data set [4] the test system is MCF-7 breast cancer cells. Nature of the data set: Cell cycle distribution by flow cytometry (PI), MCF-7. It is filed as cell-based. On the procedure:
(§5) Cell cycle inhibition and apoptosis induction tests were carried out on compound (1). The analysis was performed using the flow cytometry method to determine the percentage of living cells in each phase of the cell cycle.
(§6) This test was carried out on isolated samples (compound (1)). Culture confluent cells were distributed to 6-well plates, each 2000 µL (for treatment and for cell control). After 24 h of incubation, concentration series were made. The cells were washed with PBS, and 1000 µL of the sample solution with a certain concentration series was put in the well. For the control cells, 1000 µL of culture medium was added well. The cells were again incubated for 24 h in the CO incubator. After incubation, media from the 6-well plates were inserted into a conical tube, then washed with 1000 µL PBS and put into the same conical tube. Then, 200 µL trypsin-EDTA 0.25% was added and incubated for 3 min. Then, 1000 µL of culture medium was also added and resuspended until the cells were released one by one. The cells are then transferred to a conical and centrifuged at 2000 rpm for 3 min. For cell cycle observations, a deep cell precipitates conical tube covered with aluminum foil was dissolved with 400 µL of the PI reagent containing 1 mg/mL PI, 10 mg/mL RNAse, and 0.1% (v/v) Triton-X 100. The cells were resuspended and incubated for 5 min, and then the cell suspension was transferred into a flow cytometry tube for analysis (Ayers et al., 2011). For observations of apoptosis, the supernatant was discarded, then 100 µL of Annexin-V-FLUOS staining was added consisting of 100 µL binding buffer, 2 µL Annexin V, and 2 µL PI. This was followed by incubation in a dark space for 10 min and then analysis using a flow cytometer.
(In general: A flow cytometer gives signals particle by particle.)

For data set [5], the system named is T47D breast cancer cells. Nature of the data set: Cell cycle distribution by flow cytometry (PI), T47D. The format is cell-based. The procedure: as §5
as §6, with “The cells were resuspended and incubated for 5 min, and then the cell suspension was transferred into a flow cytometry tube for analysis (Ayers et al., 2011). For observations of apoptosis, the supernatant was discarded, then 100 µL of Annexin-V-FLUOS staining was added consisting of 100 µL binding buffer, 2 µL Annexin V, and 2 µL PI. This was followed by incubation in a dark space for 10 min and then analysis using a flow cytometer.” left out

Data set [6] deals with MCF-7 breast cancer cells. Briefly: Apoptosis induction, Annexin V/PI flow cytometry, MCF-7. It is filed as cell-based. The procedure:
(§7) The method used in this study was the detected Annexin V method using flow cytometry, which allowed for observing the induction of apoptosis that occurs in cells following treatment. Annexin V is a member of a family of phospholipid-binding proteins that are strongly negatively charged on the cell membrane. Cell death resulting from apoptosis or necrosis can be differentiated using propidium iodide (PI) staining intercalation with DNA [24].
as §6

Data set [7] relates to T47D breast cancer cells. Briefly: Apoptosis induction, Annexin V/PI flow cytometry, T47D. The format is cell-based. On the procedure: as §7, §6
The test system of data set [8] is PPAR-γ. The note with it: reported in the literature; read-out: EC50, agonistic activity against PPAR-γ; cited from earlier work.

As a reminder, the IC50 is the concentration that inhibits the measured activity by half. Turning to `C=C1CC(OC(=O)c2ccccc2)C2C(C)(CO)CC(O)CC2(C)C1CCC(C)=CCO` (stereo not drawn) [Compound (1), 2α-hydroxyscopadiol], the IC50 was 70.6 ± 1.54 µg/mL (≈ 159 µM) in data set [1], under 3.12 µg/mL in data set [2] and 36.5 ± 1.41 µg/mL (≈ 82.5 µM) in data set [3]. Further, in data set [1], the “Selectivity Index (SI) MCF-7” value is listed as 0.51. For the same compound, the “cytotoxic activity class, MCF-7” value in data set [1] (grouped according to IC50) is “strong (“strong cytotoxic” IC50 is 10–100 µg/mL)”. For the same compound, the “Selectivity Index (SI) T47D” value in data set [2] was over 3. Moreover, the “cytotoxic activity class, T47D” value in data set [2] (grouped according to IC50) is recorded as “very strong (“very strong cytotoxic”: IC50 < 10 µg/mL)”. Also, the “% Parent, G1, Cell Cycles against MCF-7” value in data set [4] (1/2 IC50, 24 h) stood at 76.5%; in data set [4] (1 IC50, 24 h) it was 78.4%. Also, the “% Parent, G2-M, Cell Cycles against MCF-7” value in data set [4] (1/2 IC50, 24 h) is on record as 17.2%. Moreover, the “% Parent, G1, Cell Cycles against T47D” value in data set [5] (1/2 IC50, 24 h) was 50.9%; in data set [5] (1 IC50, 24 h), 53.3%. Moreover, the “Apoptosis against MCF-7, % Parent, P3 (early apoptosis)” value in data set [6] (1/2 IC50, 24 h) came out at 33.5%; in data set [6] (1 IC50, 24 h), 80.7%. For the same compound, the “Apoptosis against MCF-7, % Parent, P4 (late apoptosis)” value came to 16.8% in data set [6] (1/2 IC50, 24 h); 15.1% in data set [6] (1/4 IC50, 24 h); 11.7% in data set [6] (1 IC50, 24 h). The “Apoptosis against T47D, % Parent, P3 (early apoptosis)” value was determined as 6.1% in data set [7] (1/2 IC50, 24 h); 5% in data set [7] (1/4 IC50, 24 h); 24.8% in data set [7] (1 IC50, 24 h). Moreover, the “Apoptosis against T47D, % Parent, P4 (late apoptosis)” value in data set [7] (1/2 IC50, 24 h) was found to be 3.0%; in data set [7] (1 IC50, 24 h), 2.9%.
Usually EC50 stands for the concentration giving half of the maximal effect. For `C=C1[C@@H](OC(C)=O)[C@H](OC(=O)c2ccccc2)[C@H]2[C@@](C)(CCC[C@]2(C)C(=O)O)[C@H]1CC/C(C)=C/CO` [Compound (3), 4-epi-7α-O-acetylscoparic acid A], the EC50 in data set [8] was 900 ± 300 nM.
Take `COc1cccc2c1C(=O)c1c(O)c3c(c(O)c1C2=O)C[C@@](O)(C(=O)CO)C[C@@H]3O[C@H]1C[C@H](N)[C@H](O)[C@H](C)O1` [Doxorubicin, reference compound]: in data set [1], the half-maximal inhibitory concentration (IC50) was 16.6 ± 5.85 µg/mL (≈ 30.6 µM) and the “Selectivity Index (SI) MCF-7” value came to 4.2. In addition, in data set [2], inhibition was half-maximal at 35.1 ± 3.14 µg/mL (≈ 64.5 µM) (IC50) and the “Selectivity Index (SI) T47D” value is under 3. In data set [3], this compound showed a concentration for half-maximal inhibition (IC50) of 69.5 ± 6.8 µg/mL (≈ 128 µM).
